Assay results published in the NIST ThermoML archive (doi:10.1016/j.tca.2011.01.019).
Several values for one entry are separate records, joined by “and”; a condition that tells them apart may be missing. Equal entries are not always repeated. Numbers after ± are expanded uncertainties.

Experiments:
[1] = 101 kPa, Liquid; for speed of sound: Linear variable-path acoustic interferometer; for mass density: Pycnometric method
[2] = xn = mol fraction of the nth substance listed; conditions: 101 kPa, Liquid; for speed of sound: Linear variable-path acoustic interferometer; for mass density: Pycnometric method

Cc1ccccc1N [2-methylaniline]
[1]
Conditions | mass density [kg/m3] | speed of sound [m/s]
303.15 K | 990.1 ± 0.3 | 1579 ± 3
313.15 K | 981.7 ± 0.4 | 1539 ± 3
323.15 K | 973.3 ± 0.4 | 1501 ± 3

Cc1ccccc1N [2-methylaniline] + C1CCOC1
[2]
Conditions | mass density, 303.15 K [kg/m3] | mass density, 313.15 K [kg/m3] | mass density, 323.15 K [kg/m3] | speed of sound, 303.15 K [m/s] | speed of sound, 313.15 K [m/s] | speed of sound, 323.15 K [m/s]
x2 = 0 | 990.1 ± 0.3 | 981.7 ± 0.4 | 973.3 ± 0.4 | 1579 ± 3 | 1539 ± 3 | 1501 ± 3
x2 = 0.0828 | 984 ± 0.3 | 975.9 ± 0.4 | 968 ± 0.4 | 1559 ± 3 | 1519 ± 3 | 1482 ± 3
x2 = 0.1818 | 977 ± 0.3 | 969.2 ± 0.4 | 961.5 ± 0.4 | 1534 ± 3 | 1493 ± 3 | 1458 ± 3
x2 = 0.2807 | 969.9 ± 0.3 | 962.2 ± 0.4 | 954.6 ± 0.4 | 1508 ± 3 | 1467 ± 3 | 1431 ± 3
x2 = 0.3704 | 962.6 ± 0.3 | 954.9 ± 0.4 | 947.3 ± 0.4 | 1482 ± 3 | 1442 ± 3 | 1406 ± 3
x2 = 0.4652 | 953.7 ± 0.3 | 945.9 ± 0.4 | 938.2 ± 0.4 | 1455 ± 3 | 1414 ± 3 | 1377 ± 3
x2 = 0.5732 | 941.7 ± 0.3 | 933.8 ± 0.4 | 925.9 ± 0.4 | 1421 ± 3 | 1379 ± 3 | 1342 ± 3
x2 = 0.6764 | 928.4 ± 0.3 | 920.1 ± 0.3 | 911.9 ± 0.4 | 1382 ± 3 | 1341 ± 3 | 1305 ± 2
x2 = 0.7791 | 913.3 ± 0.3 | 904.7 ± 0.3 | 896 ± 0.4 | 1343 ± 3 | 1301 ± 2 | 1264 ± 2
x2 = 0.888 | 895.8 ± 0.3 | 886.4 ± 0.3 | 877 ± 0.4 | 1300 ± 2 | 1255 ± 2 | 1219 ± 2

Cc1ccccc1N [2-methylaniline] + CC(C)OC(C)C
[2]
Conditions | mass density, 303.15 K [kg/m3] | mass density, 313.15 K [kg/m3] | mass density, 323.15 K [kg/m3] | speed of sound, 303.15 K [m/s] | speed of sound, 313.15 K [m/s] | speed of sound, 323.15 K [m/s]
x2 = 0 | 990.1 ± 0.3 | 981.7 ± 0.4 | 973.3 ± 0.4 | 1579 ± 3 | 1539 ± 3 | 1501 ± 3
x2 = 0.0717 | 968.9 ± 0.3 | 962.3 ± 0.4 | 955.7 ± 0.4 | 1530 ± 3 | 1491 ± 3 | 1457 ± 3
x2 = 0.1513 | 946.3 ± 0.3 | 940.3 ± 0.4 | 934.4 ± 0.4 | 1475 ± 3 | 1437 ± 3 | 1404 ± 3
x2 = 0.2389 | 922 ± 0.3 | 916.1 ± 0.3 | 910.4 ± 0.4 | 1415 ± 3 | 1378 ± 3 | 1343 ± 3
x2 = 0.3255 | 898.8 ± 0.3 | 892.6 ± 0.3 | 886.4 ± 0.4 | 1359 ± 3 | 1320 ± 3 | 1284 ± 2
x2 = 0.4206 | 873.5 ± 0.3 | 866.9 ± 0.3 | 860.2 ± 0.4 | 1299 ± 3 | 1259 ± 2 | 1224 ± 2
x2 = 0.5248 | 845.6 ± 0.3 | 838.8 ± 0.3 | 831.6 ± 0.4 | 1237 ± 2 | 1197 ± 2 | 1160 ± 2
x2 = 0.625 | 817.9 ± 0.3 | 811 ± 0.3 | 803.6 ± 0.3 | 1180 ± 2 | 1139 ± 2 | 1103 ± 2
x2 = 0.7415 | 784.9 ± 0.3 | 777.6 ± 0.3 | 770 ± 0.3 | 1116 ± 2 | 1074 ± 2 | 1038 ± 2
x2 = 0.866 | 749.3 ± 0.3 | 741 ± 0.3 | 732.8 ± 0.3 | 1049 ± 2 | 1007 ± 2 | 968 ± 2

Cc1cccc(N)c1 [3-methylaniline]
[1]
Conditions | mass density [kg/m3] | speed of sound [m/s]
303.15 K | 980.8 ± 0.3 | 1567 ± 3
313.15 K | 972.7 ± 0.4 | 1533 ± 3
323.15 K | 964.6 ± 0.4 | 1492 ± 3

Cc1cccc(N)c1 [3-methylaniline] + C1CCOC1
[2]
Conditions | mass density, 303.15 K [kg/m3] | mass density, 313.15 K [kg/m3] | mass density, 323.15 K [kg/m3] | speed of sound, 303.15 K [m/s] | speed of sound, 313.15 K [m/s] | speed of sound, 323.15 K [m/s]
x2 = 0 | 980.8 ± 0.3 | 972.7 ± 0.4 | 964.6 ± 0.4 | 1567 ± 3 | 1533 ± 3 | 1492 ± 3
x2 = 0.0864 | 975.3 ± 0.3 | 968 ± 0.4 | 960.1 ± 0.4 | 1544 ± 3 | 1513 ± 3 | 1474 ± 3
x2 = 0.1853 | 969.2 ± 0.3 | 962.6 ± 0.4 | 955 ± 0.4 | 1522 ± 3 | 1488 ± 3 | 1451 ± 3
x2 = 0.2831 | 963 ± 0.3 | 956.4 ± 0.4 | 948.9 ± 0.4 | 1497 ± 3 | 1463 ± 3 | 1425 ± 3
x2 = 0.3776 | 956.4 ± 0.3 | 949.7 ± 0.4 | 941.9 ± 0.4 | 1472 ± 3 | 1436 ± 3 | 1398 ± 3
x2 = 0.4693 | 949 ± 0.3 | 942 ± 0.4 | 933.9 ± 0.4 | 1447 ± 3 | 1409 ± 3 | 1372 ± 3
x2 = 0.5689 | 939.3 ± 0.3 | 931.9 ± 0.4 | 923.6 ± 0.4 | 1416 ± 3 | 1375 ± 3 | 1339 ± 3
x2 = 0.6803 | 926.2 ± 0.3 | 918.4 ± 0.3 | 909.8 ± 0.4 | 1378 ± 3 | 1338 ± 3 | 1301 ± 2
x2 = 0.7808 | 912.4 ± 0.3 | 904.3 ± 0.3 | 895.3 ± 0.4 | 1341 ± 3 | 1300 ± 2 | 1261 ± 2
x2 = 0.8886 | 895.6 ± 0.3 | 886.8 ± 0.3 | 877.2 ± 0.4 | 1300 ± 2 | 1255 ± 2 | 1217 ± 2

Cc1cccc(N)c1 [3-methylaniline] + CC(C)OC(C)C
[2]
Conditions | mass density, 303.15 K [kg/m3] | mass density, 313.15 K [kg/m3] | mass density, 323.15 K [kg/m3] | speed of sound, 303.15 K [m/s] | speed of sound, 313.15 K [m/s] | speed of sound, 323.15 K [m/s]
x2 = 0 | 980.8 ± 0.3 | 972.7 ± 0.4 | 964.6 ± 0.4 | 1567 ± 3 | 1533 ± 3 | 1492 ± 3
x2 = 0.0743 | 961 ± 0.3 | 954.3 ± 0.4 | 946.9 ± 0.4 | 1515 ± 3 | 1482 ± 3 | 1443 ± 3
x2 = 0.1546 | 939.9 ± 0.3 | 934 ± 0.3 | 927 ± 0.4 | 1462 ± 3 | 1429 ± 3 | 1391 ± 3
x2 = 0.2421 | 917.2 ± 0.3 | 911.5 ± 0.3 | 904.6 ± 0.4 | 1404 ± 3 | 1371 ± 3 | 1334 ± 3
x2 = 0.3279 | 894.6 ± 0.3 | 888.9 ± 0.3 | 881.9 ± 0.4 | 1350 ± 3 | 1315 ± 3 | 1280 ± 2
x2 = 0.4275 | 868 ± 0.3 | 862.1 ± 0.3 | 855 ± 0.4 | 1289 ± 2 | 1254 ± 2 | 1218 ± 2
x2 = 0.53 | 840 ± 0.3 | 834 ± 0.3 | 826.9 ± 0.4 | 1230 ± 2 | 1193 ± 2 | 1158 ± 2
x2 = 0.6285 | 812.7 ± 0.3 | 806.4 ± 0.3 | 799.4 ± 0.3 | 1175 ± 2 | 1138 ± 2 | 1101 ± 2
x2 = 0.7424 | 781.2 ± 0.3 | 774.5 ± 0.3 | 767 ± 0.3 | 1113 ± 2 | 1075 ± 2 | 1036 ± 2
x2 = 0.8651 | 747.8 ± 0.3 | 740.1 ± 0.3 | 731.6 ± 0.3 | 1048 ± 2 | 1007 ± 2 | 966 ± 2

CC(C)OC(C)C [diisopropyl ether]
[1]
Conditions | mass density | speed of sound [m/s]
303.15 K | 712.9 ± 0.3 kg/m3 | 976 ± 2
313.15 K | 702.5 ± 0.3 kg/m3 and 702.9 ± 0.3 kg/m3 | 932 ± 2
323.15 K | 691.9 ± 0.3 kg/m3 | 889 ± 2

CC(C)OC(C)C [diisopropyl ether] + Cc1cccc(N)c1
[2], x1 = 1
Conditions | mass density [kg/m3] | speed of sound [m/s]
303.15 K | 712.9 ± 0.3 | 976 ± 2
313.15 K | 702.9 ± 0.3 | 932 ± 2
323.15 K | 691.9 ± 0.3 | 889 ± 2

CC(C)OC(C)C [diisopropyl ether] + Cc1ccccc1N
[2], x1 = 1
Conditions | mass density [kg/m3] | speed of sound [m/s]
303.15 K | 712.9 ± 0.3 | 976 ± 2
313.15 K | 702.5 ± 0.3 | 932 ± 2
323.15 K | 691.9 ± 0.3 | 889 ± 2

C1CCOC1 [tetrahydrofuran]
[1]
Conditions | mass density [kg/m3] | speed of sound [m/s]
303.15 K | 876.9 ± 0.3 | 1254 ± 2
313.15 K | 865.7 ± 0.3 | 1207 ± 2
323.15 K | 854.8 ± 0.3 | 1165 ± 2

C1CCOC1 [tetrahydrofuran] + Cc1cccc(N)c1
[2], x1 = 1
Conditions | mass density [kg/m3] | speed of sound [m/s]
303.15 K | 876.9 ± 0.3 | 1254 ± 2
313.15 K | 865.7 ± 0.3 | 1207 ± 2
323.15 K | 854.8 ± 0.3 | 1165 ± 2

C1CCOC1 [tetrahydrofuran] + Cc1ccccc1N
[2], x1 = 1
Conditions | mass density [kg/m3] | speed of sound [m/s]
303.15 K | 876.9 ± 0.3 | 1254 ± 2
313.15 K | 865.7 ± 0.3 | 1207 ± 2
323.15 K | 854.8 ± 0.3 | 1165 ± 2
